{"source": "patent US10947289B2", "about": "“Glyco-modified atrial natriuretic peptide” (priority 2013, dated 2021)", "note": "*1 amine or outer side, *2 acyl side, *3 side chain or, on linkers, in order; H or OH if unused. Where a SMILES comes first, the peptide text is derived from it. Bridges are numbered along the chain shown (N, C = ends). [ ]: non-standard residue; d: D form. X2 = CC(=O)N[C@H]1[C@H](O[C@H]2[C@H](O)[C@@H](NC(C)=O)[C@H](OC[C@H](N[*:1])C(=O)[*:2])O[C@@H]2CO)O[C@H](CO)[C@@H](O[C@@H]2O[C@H](CO[C@H]3O[C@H](CO)[C@@H](O)[C@H](O)[C@@H]3O[C@@H]3O[C@H](CO)[C@@H](O[C@@H]4O[C@H](CO[C@]5(C(=O)O)C[C@H](O)[C@@H](NC(C)=O)[C@H]([C@H](O)[C@H](O)CO)O5)[C@H](O)[C@H](O)[C@H]4O)[C@H](O)[C@H]3NC(C)=O)[C@@H](O)[C@H](O[C@H]3O[C@H](CO)[C@@H](O)[C@H](O)[C@@H]3O[C@@H]3O[C@H](CO)[C@@H](O[C@@H]4O[C@H](CO[C@]5(C(=O)O)C[C@H](O)[C@@H](NC(C)=O)[C@H]([C@H](O)[C@H](O)CO)O5)[C@H](O)[C@H](O)[C@H]4O)[C@H](O)[C@H]3NC(C)=O)[C@@H]2O)[C@@H]1O"}
{"target": "T1, human GC-A (Homo sapiens, UniProt P16066)", "T1 construct": "expressed in transfected cells; host or cells: CHO cells", "T1 sequence (P16066 33-1061)": "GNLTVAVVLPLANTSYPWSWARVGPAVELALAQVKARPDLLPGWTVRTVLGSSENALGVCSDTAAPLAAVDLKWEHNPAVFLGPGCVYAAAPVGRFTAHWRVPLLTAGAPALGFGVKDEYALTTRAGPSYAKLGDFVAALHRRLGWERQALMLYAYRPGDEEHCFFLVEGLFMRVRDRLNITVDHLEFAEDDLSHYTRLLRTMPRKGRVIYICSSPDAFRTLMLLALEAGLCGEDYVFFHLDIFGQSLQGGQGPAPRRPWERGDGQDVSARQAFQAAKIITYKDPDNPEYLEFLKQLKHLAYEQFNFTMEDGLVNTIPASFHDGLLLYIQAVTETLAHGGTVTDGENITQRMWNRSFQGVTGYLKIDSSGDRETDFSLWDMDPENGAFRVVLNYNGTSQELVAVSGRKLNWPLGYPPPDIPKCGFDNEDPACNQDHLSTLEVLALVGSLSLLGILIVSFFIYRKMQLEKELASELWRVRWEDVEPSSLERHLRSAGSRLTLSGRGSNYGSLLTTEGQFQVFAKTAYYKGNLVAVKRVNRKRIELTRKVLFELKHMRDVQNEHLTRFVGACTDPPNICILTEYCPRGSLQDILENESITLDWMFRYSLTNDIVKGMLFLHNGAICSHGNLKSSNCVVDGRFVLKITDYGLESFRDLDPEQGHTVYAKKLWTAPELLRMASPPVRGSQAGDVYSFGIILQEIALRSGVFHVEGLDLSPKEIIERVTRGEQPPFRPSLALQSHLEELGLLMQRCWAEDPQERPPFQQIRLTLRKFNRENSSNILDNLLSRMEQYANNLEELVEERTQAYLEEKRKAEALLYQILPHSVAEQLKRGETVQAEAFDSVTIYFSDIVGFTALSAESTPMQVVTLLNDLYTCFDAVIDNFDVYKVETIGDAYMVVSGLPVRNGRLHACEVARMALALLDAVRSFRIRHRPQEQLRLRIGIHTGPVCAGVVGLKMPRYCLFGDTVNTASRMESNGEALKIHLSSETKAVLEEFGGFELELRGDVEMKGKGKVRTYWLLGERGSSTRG", "test": "cGMP elevating activity in CHO/human GC-A cells (Test Example 1)", "assay_type": "cell-based", "procedure": "The cGMP elevating activity of each modified peptide prepared in Example 2 was measured by the following method:\nCHO/human GC-A cells, which are CHO cells constitutively expressing human GC-A, were suspended at 2×10^5 cells/ml in α-MEM, 10% FBS, and 1% penicillin-streptomycin, inoculated at 20 μl/well (4×10^3 cells/well) onto a 384-well plate (Corning, 3826), and cultured overnight in a CO2 incubator. On the next day, the medium was removed from this plate, and then, 1.6 mM IBMX/KRB buffer was added thereto at 10 μl/well. The mixture was stirred on a plate shaker and then incubated at room temperature for 10 minutes. […] The mixture was stirred on a plate shaker and then incubated for 15 minutes in a CO2 incubator. Thereafter, a lysis buffer (50 mM phosphate buffer, pH 7.0, and 1% Triton X-100) was added thereto at 5 μl/well. The cells were lysed by stirring for 10 minutes on a plate shaker. Subsequently, the cGMP levels in the cell lysates were measured by use of a cGMP kit (manufactured by Cisbio Bioassays). Specifically, to a 384-well plate (Greiner, 784076), 5 μl/well of a diluent attached to the kit, 5 μl/well of the cell lysate, 5 μl/well of cGMP-d2, and 5 μl/well of anti cGMP-Cryptate were added. The mixture was stirred on a plate shaker and then incubated overnight at 4° C. in the dark, followed by the measurement of homogeneous time-resolved fluorescence using RubyStar (manufactured by BMG LABTECH JAPAN Ltd.). The activity value (T/C) of the test substance at each concentration was calculated when the activity value of a well supplemented with only a solvent was defined as 0 and the activity value of a well supplemented with 1 nM ANP was defined as 1.", "units": {"EC50": "nM"}}
{"compound": "CC[C@H](C)[C@@H]1NC(=O)[C@H](CCCNC(=N)N)NC(=O)[C@H](CC(=O)O)NC(=O)[C@H](CCSC)NC(=O)[C@H](CCCNC(=N)N)NC(=O)CNC(=O)CNC(=O)[C@H](Cc2ccccc2)NC(=O)[C@@H](NC(=O)[C@H](CO)NC(=O)[C@H](CO)NC(=O)[C@H](CCCNC(=N)N)NC(=O)[C@H](CCCNC(=N)N)NC(=O)[C@H](CC(C)C)NC(=O)[C@@H](N)CC(=O)N[C@@H]2O[C@H](CO)[C@@H](O[C@@H]3O[C@H](CO)[C@@H](O[C@@H]4O[C@H](CO[C@H]5O[C@H](CO)[C@@H](O)[C@H](O)[C@@H]5O[C@@H]5O[C@H](CO)[C@@H](O[C@@H]6O[C@H](CO[C@]7(C(=O)O)C[C@H](O)[C@@H](NC(C)=O)[C@H]([C@H](O)[C@H](O)CO)O7)[C@H](O)[C@H](O)[C@H]6O)[C@H](O)[C@H]5NC(C)=O)[C@@H](O)[C@H](O[C@H]5O[C@H](CO)[C@@H](O)[C@H](O)[C@@H]5O[C@@H]5O[C@H](CO)[C@@H](O[C@@H]6O[C@H](CO[C@]7(C(=O)O)C[C@H](O)[C@@H](NC(C)=O)[C@H]([C@H](O)[C@H](O)CO)O7)[C@H](O)[C@H](O)[C@H]6O)[C@H](O)[C@H]5NC(C)=O)[C@@H]4O)[C@H](O)[C@H]3NC(C)=O)[C@H](O)[C@H]2NC(C)=O)CSSC[C@@H](C(=O)N[C@@H](CC(N)=O)C(=O)N[C@@H](CO)C(=O)N[C@@H](Cc2ccccc2)C(=O)N[C@@H](CCCNC(=N)N)C(=O)N[C@@H](Cc2ccc(O)cc2)C(=O)O)NC(=O)CNC(=O)[C@H](CC(C)C)NC(=O)CNC(=O)[C@H](CO)NC(=O)[C@H](CCC(N)=O)NC(=O)[C@H](C)NC(=O)CNC1=O", "note": "[Compound 2-4, (SG-)Asn-hANP(2-28)]", "EC50": 0.08}
{"compound": "CC[C@H](C)[C@@H]1NC(=O)[C@H](CCCNC(=N)N)NC(=O)[C@H](CC(=O)O)NC(=O)[C@H](CCSC)NC(=O)[C@H](CCCNC(=N)N)NC(=O)CNC(=O)CNC(=O)[C@H](Cc2ccccc2)NC(=O)[C@@H](NC(=O)[C@H](CO)NC(=O)[C@H](CO)NC(=O)[C@H](CCCNC(=N)N)NC(=O)[C@H](CCCNC(=N)N)NC(=O)[C@H](CC(C)C)NC(=O)[C@@H](N)CO[C@@H]2O[C@H](CO)[C@@H](O[C@@H]3O[C@H](CO)[C@@H](O[C@@H]4O[C@H](CO[C@H]5O[C@H](CO)[C@@H](O)[C@H](O)[C@@H]5O[C@@H]5O[C@H](CO)[C@@H](O[C@@H]6O[C@H](CO[C@]7(C(=O)O)C[C@H](O)[C@@H](NC(C)=O)[C@H]([C@H](O)[C@H](O)CO)O7)[C@H](O)[C@H](O)[C@H]6O)[C@H](O)[C@H]5NC(C)=O)[C@@H](O)[C@H](O[C@H]5O[C@H](CO)[C@@H](O)[C@H](O)[C@@H]5O[C@@H]5O[C@H](CO)[C@@H](O[C@@H]6O[C@H](CO[C@]7(C(=O)O)C[C@H](O)[C@@H](NC(C)=O)[C@H]([C@H](O)[C@H](O)CO)O7)[C@H](O)[C@H](O)[C@H]6O)[C@H](O)[C@H]5NC(C)=O)[C@@H]4O)[C@H](O)[C@H]3NC(C)=O)[C@H](O)[C@H]2NC(C)=O)CSSC[C@@H](C(=O)N[C@@H](CC(N)=O)C(=O)N[C@@H](CO)C(=O)N[C@@H](Cc2ccccc2)C(=O)N[C@@H](CCCNC(=N)N)C(=O)N[C@@H](Cc2ccc(O)cc2)C(=O)O)NC(=O)CNC(=O)[C@H](CC(C)C)NC(=O)CNC(=O)[C@H](CO)NC(=O)[C@H](CCC(N)=O)NC(=O)[C@H](C)NC(=O)CNC1=O", "note": "[Compound 2-5, (SG-)Ser-hANP(2-28)] (H-[X2]LRRSSCFGGRMDRIGAQSGLGCNSFRY-OH; disulfide 7-23)", "EC50": 0.082}
{"compound": "CC[C@H](C)[C@@H]1NC(=O)[C@H](CCCNC(=N)N)NC(=O)[C@H](CC(=O)O)NC(=O)[C@H](CCSC)NC(=O)[C@H](CCCNC(=N)N)NC(=O)CNC(=O)CNC(=O)[C@H](Cc2ccccc2)NC(=O)[C@@H](NC(=O)[C@H](CO)NC(=O)[C@H](CO)NC(=O)[C@H](CCCNC(=N)N)NC(=O)[C@H](CCCNC(=N)N)NC(=O)[C@H](CC(C)C)NC(=O)[C@H](CO)NC(=O)CCOCCOCCOCCOCCNC(=O)[C@H](CC(=O)N[C@@H]2O[C@H](CO)[C@@H](O[C@@H]3O[C@H](CO)[C@@H](O[C@@H]4O[C@H](CO[C@H]5O[C@H](CO)[C@@H](O)[C@H](O)[C@@H]5O[C@@H]5O[C@H](CO)[C@@H](O[C@@H]6O[C@H](CO)[C@H](O)[C@H](O)[C@H]6O)[C@H](O)[C@H]5NC(C)=O)[C@@H](O)[C@H](O[C@H]5O[C@H](CO)[C@@H](O)[C@H](O)[C@@H]5O[C@@H]5O[C@H](CO)[C@@H](O[C@@H]6O[C@H](CO)[C@H](O)[C@H](O)[C@H]6O)[C@H](O)[C@H]5NC(C)=O)[C@@H]4O)[C@H](O)[C@H]3NC(C)=O)[C@H](O)[C@H]2NC(C)=O)NC(=O)CO[C@@H]2O[C@H](CO)[C@@H](O[C@@H]3O[C@H](CO)[C@@H](O[C@@H]4O[C@H](CO[C@H]5O[C@H](CO)[C@@H](O)[C@H](O)[C@@H]5O[C@@H]5O[C@H](CO)[C@@H](O[C@@H]6O[C@H](CO)[C@H](O)[C@H](O)[C@H]6O)[C@H](O)[C@H]5NC(C)=O)[C@@H](O)[C@H](O[C@H]5O[C@H](CO)[C@@H](O)[C@H](O)[C@@H]5O[C@@H]5O[C@H](CO)[C@@H](O[C@@H]6O[C@H](CO)[C@H](O)[C@H](O)[C@H]6O)[C@H](O)[C@H]5NC(C)=O)[C@@H]4O)[C@H](O)[C@H]3NC(C)=O)[C@H](O)[C@H]2NC(C)=O)CSSC[C@@H](C(=O)N[C@@H](CC(N)=O)C(=O)N[C@@H](CO)C(=O)N[C@@H](Cc2ccccc2)C(=O)N[C@@H](CCCNC(=N)N)C(=O)N[C@@H](Cc2ccc(O)cc2)C(=O)O)NC(=O)CNC(=O)[C@H](CC(C)C)NC(=O)CNC(=O)[C@H](CO)NC(=O)[C@H](CCC(N)=O)NC(=O)[C@H](C)NC(=O)CNC1=O", "note": "[Compound 2-21, AG(9)-(AG(9)-)Asn-PEG(3)-hANP(1-28)]", "EC50": 0.097}
{"compound": "CC[C@H](C)[C@@H]1NC(=O)[C@H](CCCNC(=N)N)NC(=O)[C@H](CC(=O)O)NC(=O)[C@H](CCSC)NC(=O)[C@H](CCCNC(=N)N)NC(=O)CNC(=O)CNC(=O)[C@H](Cc2ccccc2)NC(=O)[C@@H](NC(=O)[C@H](CO)NC(=O)[C@H](CO)NC(=O)[C@H](CCCNC(=N)N)NC(=O)[C@H](CCCNC(=N)N)NC(=O)[C@H](CC(C)C)NC(=O)[C@H](CO)NC(=O)CCOCCOCCOCCOCCNC(=O)[C@H](CC(=O)N[C@@H]2O[C@H](CO)[C@@H](O[C@@H]3O[C@H](CO)[C@@H](O[C@@H]4O[C@H](CO[C@H]5O[C@H](CO)[C@@H](O)[C@H](O)[C@@H]5O[C@@H]5O[C@H](CO)[C@@H](O)[C@H](O)[C@H]5NC(C)=O)[C@@H](O)[C@H](O[C@H]5O[C@H](CO)[C@@H](O)[C@H](O)[C@@H]5O[C@@H]5O[C@H](CO)[C@@H](O)[C@H](O)[C@H]5NC(C)=O)[C@@H]4O)[C@H](O)[C@H]3NC(C)=O)[C@H](O)[C@H]2NC(C)=O)NC(=O)CO[C@@H]2O[C@H](CO)[C@@H](O[C@@H]3O[C@H](CO)[C@@H](O[C@@H]4O[C@H](CO[C@H]5O[C@H](CO)[C@@H](O)[C@H](O)[C@@H]5O[C@@H]5O[C@H](CO)[C@@H](O)[C@H](O)[C@H]5NC(C)=O)[C@@H](O)[C@H](O[C@H]5O[C@H](CO)[C@@H](O)[C@H](O)[C@@H]5O[C@@H]5O[C@H](CO)[C@@H](O)[C@H](O)[C@H]5NC(C)=O)[C@@H]4O)[C@H](O)[C@H]3NC(C)=O)[C@H](O)[C@H]2NC(C)=O)CSSC[C@@H](C(=O)N[C@@H](CC(N)=O)C(=O)N[C@@H](CO)C(=O)N[C@@H](Cc2ccccc2)C(=O)N[C@@H](CCCNC(=N)N)C(=O)N[C@@H](Cc2ccc(O)cc2)C(=O)O)NC(=O)CNC(=O)[C@H](CC(C)C)NC(=O)CNC(=O)[C@H](CO)NC(=O)[C@H](CCC(N)=O)NC(=O)[C@H](C)NC(=O)CNC1=O", "note": "[Compound 2-22, AG(7)-(AG(7)-)Asn-PEG(3)-hANP(1-28)]", "EC50": 0.08}
